{"source": "paper PMC9120013", "about": "“Ribosome inhibition by C9ORF72-ALS/FTD-associated poly-PR and poly-GR proteins revealed by cryo-EM” (Nature Communications, 2022)", "key": {"[1]": {"molecular_target": "translation of nanoluciferase mRNA in rabbit reticulocyte lysates", "assay": "Nanoluciferase mRNA translation in rabbit reticulocyte lysate, inhibitor preincubated 5 min before mRNA", "format": "biochemical", "conditions": "for IC50: same extracts as the DPR assay, read-out: IC50 in RRL extracts, range stated in the response to reviewers", "excerpt": "Rabbit reticulocyte lysates (RRL, Promega) were used to investigate the inhibition of translation by DPR proteins. We independently monitored translation of two mRNAs encoding non-homologous proteins of different lengths: nanoluciferase[71] and firefly luciferase. To measure the IC50s of the translational inhibitors cycloheximide (Akros Organics), harringtonine (AbCam), GDPCP (Jena Biosciences), PR20 and GR20, we monitored the translation of nanoluciferase mRNA in nuclease-treated RRL (Promega). […] Next, 10 ng/μl (final concentration) 6xhis-Nanoluciferase mRNA flanked with the 5'- and 3'-UTR from rabbit beta-globin[48] was added and the luminescence reactions were continuously measured by an Infinite m1000 pro microplate reader (Tecan) for 15 min at 30 °C. The 1st derivative of the luminescence reactions was determined in Prism 8 (GraphPad Software, LLC) and the maximum was identified and the mean of three maximums from independent experiments for each inhibitor was taken as the rate. The rates were plotted versus inhibitors concentration, and the plots were fitted in Prism 8 (GraphPad Software, LLC) to a 3-parameter inhibition model (Y = baseline + (max-baseline)/(1 + X/IC50)) to obtain the IC50 values where the baseline was constrained to 0. This procedure was modified to separate translation initiation from translation elongation by changing the time of addition of the inhibitors to ~300 s after mRNA addition when RLUs had reached a value of ~50,000. Here, the maximum of the first derivative was taken in the 2nd or later measurement taken after inhibitor addition.\nThe following additional controls indicate that DPR-induced changes in fluorescence were caused by translation inhibition."}, "[2]": {"test_system": "ribosomes on endogenous beta-globin mRNA in RRL", "assay": "Toeprinting of 80S and 4-5-mer polysome fractions on beta-globin mRNA", "format": "biochemical, rabbit", "conditions": "for Ratio (START to CDS) / Normalized ratio START/ORF: 80S fraction, primer A, Fig. 2f independent repeat; for Normalized ratio START/ORF: no inhibitor = 1; for normalized ratio START to CDS, MEAN: 4-5-mer, primer B, mean of ten 20 bp windows", "method": "Toeprinting analyses were carried out similarly to those in refs. [51],[74], using 80S and polysome (4–5-some) fractions collected from polysome profiles as described in “Polysome Profiles” except that reactions were doubled in size (200 μL), performed at 37 °C, and were stopped with ice-cold 1xAMV Buffer (50 mM Tris-HCl pH 8.3, 50 mM KCl, 5 mM MgCl2) with 200 μg/ml cycloheximide before being separated on at 10–35% sucrose gradient in 1xAMV buffer with 0.5 mM spermidine and 1 mM DTT. 600 μl of each fraction (80S or 4–5-mer) was supplemented with 10 mM DTT. Then 10 U of AMV reverse transcriptase (Promega), 120 nmol dNTPs, and 120 pmol of a 5'[6-carboxyfluorescein (FAM)]-labeled primer (IDT-DNA) were added. Two primers specific to the endogenous beta-globin mRNA in RRL were used in separate reactions: 5′-(FAM)-GGACTCGAAGAACCTCTG (as in ref. [74]) annealed 136 nucleotides downstream of the AUG or 5′-(FAM)-[…] annealed to the end of the 3'-UTR. Primers were extended at 37 °C for 30 min, and then the reaction were extracted in 1:1 phenol:chloroform, supplemented with 1/10 volume of 3 M sodium acetate pH 5.2, and precipitated with 2.5 volumes of 100% ethanol. Pellets were resuspended in 10 μl of deionized formamide (Applied Biosystems) with 1/20 volume of a 35-500 nucleotide orange-dye labeled DNA size standard (MCLab) and loaded onto a 96-well plate. The samples were sent for fragment analysis by capillary electrophoresis to the UMass Chan Medical School Molecular Biology Core Laboratory using an ABI3730XL DNA Fragment Analyzer with capillaries loaded with POP-7 polymer and with an injection voltage of 12.5 kV. Data collection was performed with GeneMapper software (ABI). Data were exported as.fsa files and were analyzed (aligning to ladder and background correction) in GeneMarker 3.0.1 software (SoftGenetics) running in demo mode. Screen captures of traces were taken and traces were integrated using the “Quantification” feature and manually adjusting sliders to include the desired nucleotide range."}, "E. coli 70S ribosomes": {"test_system": "E. coli 70S ribosomes", "assay": "Kinetic peptidyl transfer (puromycin) assay on E. coli 70S ribosomes", "format": "biochemical", "conditions": "for Ki: n = 2", "method": "The effects of GRn or PRn on peptide bond formation in E. coli ribosome were tested in an in vitro assay that reacts the 70S ribosome loaded with [^35S]-fMet-tRNA^fMet in the P-site with puromycin, an A-site tRNA mimic, and measures the release of the resulting dipeptide containing formyl-methionine covalently bonded to puromycin, as described. E. coli tRNA^fMet (Chemical Block) was aminoacylated with [^35S]-N-formyl-L-methionine (Perkin Elmer) as described. 70S ribosomes were prepared from E. coli (MRE600) as described. 70S ribosomes were stored in the ribosome-storage buffer (20 mM Tris-HCl, pH 7.0; 100 mM NH4Cl; 20 mM MgCl2) at –80 °C. A model mRNA fragment, containing the Shine-Dalgarno sequence and a spacer to position the AUG codon in the P-site and the UUC codon in the A site (GGCAAGGAGGUAAAAAUGUUC AAAAAA), was synthesized by IDT. 70S•mRNA•fMet-tRNA^fMet complexes with GRn (where n = 4, 10 or 20) or PRn (where n = 4, 10, 20 or 40) were formed as follows. 330 nM 70S ribosomes were incubated with 11 µM mRNA in buffer containing 20 mM Tris-acetate (pH 7.0), 100 mM NH4OAc, 12 mM Mg(OAc)2, for 2 min at 37 °C. 730 nM [^35S]-fMet-tRNA^fMet was added and incubated for 5 min at 37 °C. The solution was diluted 9.6-fold with the same buffer, followed by addition of a GRn or PRn repeat peptide (22x relative to its final concentration). The complex was incubated for 5 min at 37 °C prior to addition of puromycin dissolved in the same buffer (see below).\n(§1) The kinetics of puromycin reaction on the 70S or 80S ribosomes were recorded and analyzed essentially as described. An aliquot (4.5 μl) of the complex prior to addition of puromycin was quenched in 30 μl of saturated MgSO4 in 0.1 M NaOAc to represent the zero-time point. Five microliters of 500 µM puromycin (in the same buffer as that used for the ribosomal complex) was added to 45 μl of the complex to initiate the reaction, yielding estimated final concentrations: 30 nM for the ribosome, 1 µM mRNA, 66 nM [^35S]-fMet-tRNA^fMet, 50 µM puromycin, and varying concentrations of PRn and GRn peptides, from 30 nM to 2 μM. After 6, 15, 30, 90 s, and 5, 15, 30, 60, and (for slower reactions) 180 min, 5-μl aliquots were quenched in 30 μl of saturated MgSO4 in 0.1 M NaOAc. All quenched samples were extracted with 700 μl ethyl-acetate. 600 μl of the extract were mixed with 3.5 ml of Econo-Safe scintillation cocktail (RPI), and the amount of released [^35S]-labeled dipeptide was measured for each time point using a scintillation counter (Beckman Coulter, Inc.).\n(§2) All time progress curves were recorded in duplicates, using independently prepared 70S or 80S complexes. Reaction rates were calculated using single-exponential or double-exponential (80S complexes) regressions for different concentrations of PRn and GRn using GraphPad Prism 8. Hyperbola fitting in Gnuplot was used to derive apparent Ki-values."}, "rabbit 80S ribosomes": {"test_system": "rabbit 80S ribosomes", "assay": "Kinetic peptidyl transfer (puromycin) assay on rabbit 80S ribosomes", "format": "biochemical", "excerpt": "To test the effects of PR20 on the mammalian peptidyl transferase, 80S ribosomes were purified from rabbit reticulocyte lysate (Green Hectares) and dissociated into 40S and 60S subunits as described in the section entitled “Cryo-EM complex of mammalian 80S ribosome with PR20”. A model leaderless mRNA fragment placing the AUG codon in the P-site and the UUC codon in the A site (CCAC AUG UUC CCCCCCCCCCCCCCCCCC), was synthesized by IDT. The 80S•mRNA•fMet-tRNA^fMet complex with PRn (where n = 10, 20, or 40) or GR20 was assembled as follows. one micrometer 60S subunit was mixed with the DPR (starting with the initial DPR concentration of 33x relative to its final concentration in the reaction) in Assembly Buffer containing 20 mM Tris-acetate (pH 7.0), 100 mM KOAc, 10 mM Mg(OAc)2, and the mixture was incubated for 5 min at 30 °C. […] 1095 nM [^35S]-fMet-tRNA^fMet and the 60S solution were added (0.5 volumes of the 40S solution), resulting in the following concentrations: 330 nM 60S, 400 nM 40S, 730 nM tRNA, 11 µM mRNA and 11x of final concentration of a DPR in the buffer (20 mM Tris-acetate (pH 7.0), 100 mM KOAc, 10 mM Mg(OAc)2). The solution was incubated for 5 min at 30 °C. The solution was diluted ten times with the same buffer, then puromycin (prepared in the same buffer) was added and time progress curves were recorded.\nas §1, §2"}, "[3]": {"molecular_target": "Oryctolagus cuniculus (rabbit) 80S ribosome (rabbit (Oryctolagus cuniculus)) (UniProt G1SVW5)"}, "[4]": {"molecular_target": "Escherichia coli 70S ribosome (E. coli)"}, "[5]": {"conditions": "30 nM 70S, 50 µM puromycin, 37 °C, read-out: apparent inhibition constant (Ki) of peptidyl transfer"}}, "note": "Like-named read-outs stand apart in the source and are kept apart here. Ends that are not written are not given here."}
{"molecule": "C[C@@H]1C[C@@H]([C@H](O)CC2CC(=O)NC(=O)C2)C(=O)[C@@H](C)C1", "note": "[Cycloheximide]", "values": [{"measurement": "IC50", "setting": "[1]", "value": "10 to 500", "unit": "nM"}, {"measurement": "site of ribosome accumulation, toe-printing of polysome fractions", "setting": "[2]", "value": "accumulate within the open reading frame"}, {"measurement": "Ratio (START to CDS)", "setting": "[2]", "value": 3.435}, {"measurement": "Normalized ratio START/ORF", "setting": "[2]", "value": 1.274}, {"measurement": "normalized ratio START to CDS, MEAN", "setting": "[2]; Fig. 2g", "value": 0.5607}, {"measurement": "normalized ratio START to CDS, MEAN", "setting": "[2]; Fig. 2h independent repeat", "value": 0.326}]}
{"molecule": "COC(=O)C[C@](O)(CCC(C)(C)O)C(=O)O[C@@H]1C(OC)=C[C@]23CCCN2CCc2cc4c(cc2[C@H]13)OCO4", "note": "[Harringtonine]", "values": [{"measurement": "IC50", "setting": "[1]", "value": "10 to 500", "unit": "nM"}, {"measurement": "site of ribosome accumulation, toe-printing of polysome fractions", "setting": "[2]", "value": "accumulate at the start codon"}, {"measurement": "Ratio (START to CDS)", "setting": "[2]", "value": 6.47}, {"measurement": "Normalized ratio START/ORF", "setting": "[2]", "value": 2.399}, {"measurement": "normalized ratio START to CDS, MEAN", "setting": "[2]; Fig. 2g", "value": 9.437}, {"measurement": "normalized ratio START to CDS, MEAN", "setting": "[2]; Fig. 2h independent repeat", "value": 4.139}]}
{"molecule": "GRGRGRGR [GR4]", "values": [{"measurement": "Ki", "setting": "E. coli 70S ribosomes; [5]", "value": "> 2000", "unit": "nM"}, {"measurement": "effect on peptidyl transfer on 70S", "setting": "E. coli 70S ribosomes; 2 µM", "value": "fail to inhibit peptidyl transfer"}]}
{"molecule": "N=C(N)NCCC[C@H](N)C(=O)O", "note": "[L-arginine, reference compound]", "values": [{"measurement": "effect on nanoluciferase translation in RRL", "setting": "[1]; 100 μM", "value": "not inhibited"}, {"measurement": "effect on peptidyl transfer on 70S", "setting": "E. coli 70S ribosomes; 50 µM (Supplementary Fig. 2b)", "value": "does not affect the peptidyl transfer reaction"}, {"measurement": "effect on peptidyl transfer on rabbit 80S", "setting": "rabbit 80S ribosomes; 50 µM", "value": "does not"}]}
{"molecule": "GR20 (poly-glycine-arginine, 20 repeats) (peptide)", "values": [{"measurement": "IC50 of translation of nanoluciferase mRNA in 33% rabbit reticulocyte lysate", "setting": "[3]", "value": 425, "unit": "nM"}, {"measurement": "IC50 of translation of nanoluciferase mRNA in 50% rabbit reticulocyte lysate", "setting": "[3]", "value": 640, "unit": "nM"}, {"measurement": "apparent inhibition constant (Ki) of peptidyl transfer from [35S]-fMet-tRNAfMet to puromycin on E. coli 70S ribosomes", "setting": "[4]", "value": 164, "unit": "nM"}]}
{"molecule": "PRPRPRPR [PR4]", "values": [{"measurement": "Ki", "setting": "E. coli 70S ribosomes; [5]", "value": "> 2000", "unit": "nM"}, {"measurement": "effect on peptidyl transfer on 70S", "setting": "E. coli 70S ribosomes; 2 µM", "value": "fail to inhibit peptidyl transfer"}]}
{"molecule": "PRPRPRPRPRPRPRPRPRPR [PR10]", "values": [{"measurement": "Ki", "setting": "E. coli 70S ribosomes; source data of Fig. 3b, unit printed in the legend b16 only, read-out: Ki, app of fMet-Pmn release from 70S", "value": 1050, "unit": "nM"}, {"measurement": "effect on peptidyl transfer on rabbit 80S", "setting": "rabbit 80S ribosomes; 2 µM, n=2", "value": "no inhibition"}]}
{"molecule": "PRPRPRPRPRPRPRPRPRPR", "note": "[PR10 (poly-proline-arginine, 10 repeats)]", "values": [{"measurement": "apparent inhibition constant (Ki) of peptidyl transfer to puromycin on E. coli 70S ribosomes", "setting": "[4]", "value": 1000, "unit": "nM"}]}
{"molecule": "GRGRGRGRGRGRGRGRGRGR", "note": "[GR10 (poly-glycine-arginine, 10 repeats)]", "values": [{"measurement": "apparent inhibition constant (Ki) of peptidyl transfer to puromycin on E. coli 70S ribosomes", "setting": "[4]", "value": 600, "unit": "nM"}]}
{"molecule": "PR40: poly-PR peptide of 40 repeats (peptide) peptide: PRPRPRPRPRPRPRPRPRPRPRPRPRPRPRPRPRPRPRPRPRPRPRPRPRPRPRPRPRPRPRPRPRPRPRPRPRPRPRPR", "values": [{"measurement": "Ki", "setting": "E. coli 70S ribosomes; [5]", "value": "≤ 30", "unit": "nM"}, {"measurement": "Ki", "setting": "rabbit 80S ribosomes; rabbit 80S", "value": "≤ 30", "unit": "nM"}]}
